Data published in publication PMC10128108 (RSC Advances, 2023).
Entries after “also recorded” stand apart in the source; their conditions may differ. Blank lines part the entries; values can stand above or below the compound they belong to.

Key:
[1] = test system: human lung fibroblasts (WI-38) normal cells; assay: MTT cytotoxicity assay, normal WI-38 cells; format: cell-based; details: WI-38, read-out: IC50 against WI-38
Bax = Bax level, ELISA in HepG-2; format: cell-based, human; details: for Bax: HepG-2, 24 h, 5a at 3.42 μM; for Bax/Bcl-2: ratio of the two levels, HepG-2
Bcl-2 = Bcl-2 level, ELISA in HepG-2; format: cell-based, human; details: for Bcl-2: HepG-2, 24 h, 5a at 3.42 μM
caspase-3 = assay: Caspase-3 level, ELISA in HepG-2; format: cell-based, human; details: for Casp-3: HepG-2, 24 h, 5a at 3.42 μM
[2] = test system: MCF-7 breast cancer cell line; assay: MTT antiproliferative assay, MCF-7; details: for IC50: Homo sapiens, MCF7, read-out: IC50 against MCF-7; for SI (selectivity index), MCF-7: relative to normal WI-38 cells
[3] = test system: HepG-2 liver cancer cell line; assay: MTT antiproliferative assay, HepG-2; details: for IC50: Homo sapiens, HepG2, read-out: IC50 against HepG-2; for SI (selectivity index), HepG-2: relative to normal WI-38 cells
[4] = test system: HCT-116 colorectal cancer cell line; assay: MTT antiproliferative assay, HCT-116; details: for IC50: Homo sapiens, HCT-116, read-out: IC50 against HCT-116; for SI (selectivity index), HCT-116: relative to normal WI-38 cells
c-Met kinase = c-Met kinase (Homo sapiens, UniProt P08581); assay: c-Met kinase inhibitory assay
HepG-2 cells [5] = assay: Cell cycle analysis; format: cell-based, human; details: 24 h
HepG-2 cells [6] = assay: Annexin V-FITC/PI apoptosis assay; format: cell-based, human
p53 = p53 level, ELISA in HepG-2; format: cell-based, human
[7] = HepG-2, IC50 concentration (3.42 μM)
[8] = with respect to untreated HepG-2 cells

Sequence of c-Met kinase (P08581 25-1390): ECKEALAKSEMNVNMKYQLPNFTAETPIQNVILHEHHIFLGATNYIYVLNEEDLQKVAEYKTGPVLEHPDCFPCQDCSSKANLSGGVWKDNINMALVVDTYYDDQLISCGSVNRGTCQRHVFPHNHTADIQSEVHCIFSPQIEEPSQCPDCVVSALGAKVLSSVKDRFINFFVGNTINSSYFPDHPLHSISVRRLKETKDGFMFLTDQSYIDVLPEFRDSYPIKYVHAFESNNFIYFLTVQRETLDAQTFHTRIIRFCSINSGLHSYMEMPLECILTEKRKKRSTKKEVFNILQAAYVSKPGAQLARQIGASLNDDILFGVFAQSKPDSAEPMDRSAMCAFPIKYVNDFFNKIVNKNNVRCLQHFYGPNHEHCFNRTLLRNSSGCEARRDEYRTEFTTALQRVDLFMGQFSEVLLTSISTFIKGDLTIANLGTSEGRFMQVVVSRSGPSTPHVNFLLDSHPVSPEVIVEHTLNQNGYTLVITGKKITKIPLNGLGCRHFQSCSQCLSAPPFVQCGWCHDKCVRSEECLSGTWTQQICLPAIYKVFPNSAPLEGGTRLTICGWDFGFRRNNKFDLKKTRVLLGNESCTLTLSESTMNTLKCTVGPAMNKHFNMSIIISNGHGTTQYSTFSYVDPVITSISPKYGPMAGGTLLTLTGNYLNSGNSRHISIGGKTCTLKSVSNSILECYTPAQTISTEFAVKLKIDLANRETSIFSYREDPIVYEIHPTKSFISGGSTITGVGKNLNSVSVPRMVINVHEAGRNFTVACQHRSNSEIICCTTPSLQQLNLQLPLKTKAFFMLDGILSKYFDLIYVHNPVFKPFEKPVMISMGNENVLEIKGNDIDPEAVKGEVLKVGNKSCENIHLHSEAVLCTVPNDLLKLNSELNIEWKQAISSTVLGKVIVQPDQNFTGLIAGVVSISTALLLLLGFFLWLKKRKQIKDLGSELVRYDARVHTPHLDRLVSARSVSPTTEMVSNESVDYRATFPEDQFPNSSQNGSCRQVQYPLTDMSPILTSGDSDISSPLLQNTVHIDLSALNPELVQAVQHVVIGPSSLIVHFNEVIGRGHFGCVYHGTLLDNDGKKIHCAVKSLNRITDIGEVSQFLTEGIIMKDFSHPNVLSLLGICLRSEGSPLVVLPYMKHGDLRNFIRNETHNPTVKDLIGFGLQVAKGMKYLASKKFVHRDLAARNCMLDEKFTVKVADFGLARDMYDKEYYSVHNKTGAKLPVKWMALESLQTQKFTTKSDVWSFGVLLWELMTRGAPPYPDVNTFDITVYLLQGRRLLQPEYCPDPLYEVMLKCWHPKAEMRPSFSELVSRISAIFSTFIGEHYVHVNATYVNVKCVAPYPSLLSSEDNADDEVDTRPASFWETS

Compound: C#Cc1cccc(Nc2ncnc3cc(OCCOC)c(OCCOC)cc23)c1 [Erlotinib, reference compound]
IC50 [1]: 70 ± 1.08 µM
Bax (Bax): 200.20 ± 0.25 pg/mL
Bax/Bcl-2 (Bax): 118.84
Bcl-2 (Bcl-2): 1.69 ± 0.10 ng/mL
Casp-3 (caspase-3): 58.41 ± 0.12 ng/mL

Compound: Cc1ccc(S(=O)(=O)n2nc(C)c3c(-c4ccc(Cl)cc4)c(C#N)c(=S)[nH]c32)cc1 [Compound 5b, 4-(4-Chlorophenyl)-3-methyl-6-thioxo-1-tosyl-6,7-dihydro-1H-pyrazolo[3,4-b]pyridine-5-carbonitrile]
IC50 [1]: 85.1 ± 0.32 µM
IC50 [2]: 6.82 ± 1.1 µM
SI (selectivity index), MCF-7 [2]: 12.47
IC50 [3]: 3.56 ± 1.5 µM
fold more potent than erlotinib against HepG-2 ([3]; ratio of IC50 values): approximately 2.4 fold
SI (selectivity index), HepG-2 [3]: 23.90
IC50 [4]: 9.21 ± 0.02 µM
SI (selectivity index), HCT-116 [4]: 9.23
IC50 (c-Met kinase): 7.95 ± 0.17 nM

Compound: O=c1[nH]cc(F)c(=O)[nH]1 [5-Fluorouracil, reference compound]
IC50 [1]: 79.7 ± 0.64 µM
IC50 [2]: 3.58 ± 0.45 µM
SI (selectivity index), MCF-7 [2]: 22.26
IC50 [3]: 2.87 ± 0.15 µM
SI (selectivity index), HepG-2 [3]: 27.77
IC50 [4]: 5.26 ± 0.31 µM
SI (selectivity index), HCT-116 [4]: 15.15

Compound: Cc1ccc(S(=O)(=O)n2nc(C)c3c(-c4ccccc4)c(C#N)c(=S)[nH]c32)cc1 [Compound 5a, 3-Methyl-4-phenyl-6-thioxo-1-tosyl-6,7-dihydro-1H-pyrazolo[3,4-b]pyridine-5-carbonitrile]
IC50 [1]: 80.46 ± 0.33 µM
cell cycle arrest phase (HepG-2 cells [5]; HepG-2, 3.42 μM): arrested the cell cycle at the G1/S phase; also recorded: cell cycle arrest at the G1/S phase
percentage of cells in G0–G1 phase (HepG-2 cells [5]; [7]): 51.93%
percentage of cells in G2/M phase (HepG-2 cells [5]; [7]): 3.89%
percentage of cells in S phase (HepG-2 cells [5]; [7]): 44.18%
Apoptosis Early (HepG-2 cells [6]; HepG-2, 3.42 μM, 24 h): 24.63%
Apoptosis Late (HepG-2 cells [6]; HepG-2, 3.42 μM, 24 h): 16.28%
Necrosis (HepG-2 cells [6]; HepG-2, 3.42 μM, 24 h): 6.24%
fold increase of early apoptotic cells (HepG-2 cells [6]; [8]): about 63 folds
fold increase of late apoptotic cells (HepG-2 cells [6]; [8]): ~116 folds
Bax (Bax): 211.40 ± 0.25 pg/mL
Bax/Bcl-2 (Bax): 101.14
fold increase of Bax level (Bax; vs untreated HepG-2 cells): ~5.4 folds
fold increase of Bax/Bcl-2 ratio (Bax; vs untreated HepG-2 cells): 21 times
Bcl-2 (Bcl-2): 2.09 ± 0.15 ng/mL
fold reduction of Bcl-2 level (Bcl-2; vs untreated HepG-2 cells): ~3.9 folds
p53 (p53; HepG-2, 24 h, 5a at 3.42 μM): 825.22 ± 0.40 pg/mL
fold upregulation of p53 (p53; vs untreated HepG-2 cells): 6.9 folds
Casp-3 (caspase-3): 42.60 ± 0.10 ng/mL
fold upregulation of caspase-3 (caspase-3; vs untreated HepG-2 cells): 23.8 folds
IC50 [2]: 5.25 ± 1.04 µM
SI (selectivity index), MCF-7 [2]: 15.32
IC50 [3]: 3.42 ± 1.31 µM
fold more potent than erlotinib against HepG-2 ([3]; ratio of IC50 values): approximately 2.4 fold
SI (selectivity index), HepG-2 [3]: 23.52
IC50 [4]: 6.27 ± 1.15 µM
SI (selectivity index), HCT-116 [4]: 12.83
IC50 (c-Met kinase): 4.27 ± 0.31 nM

More lines, main results first:

IC50 [2]: 36.25 ± 0.13 µM
IC50 [3]: 25.4 ± 0.5 µM
IC50 [4]: 41.77 ± 0.4 µM
Compound: Cc1ccc(S(=O)(=O)n2nc(C)c3c(-c4ccc(Cl)cc4)c4c(N)c(C#N)sc4nc32)cc1 [Compound 8c, 5-Amino-4-(4-chlorophenyl)-3-methyl-1-tosyl-1H-pyrazolo[3,4-b]thieno[3,2-e]pyridine-6-carbonitrile]

IC50 [2]: 8.13 ± 0.4 µM
IC50 [3]: 6.75 ± 0.62 µM
IC50 [4]: 9.36 ± 0.45 µM
Compound: Cc1ccc(S(=O)(=O)n2nc(C)c3sc(=S)n(-c4ccccc4)c32)cc1 [Compound 10b, 3-Methyl-6-phenyl-1-tosyl-1H-pyrazolo[3,4-d]thiazole-5(6H)-thione]
IC50 [1]: 85.41 ± 0.51 µM
SI (selectivity index), MCF-7 [2]: 10.50
fold less potent than 5-FU against HepG-2 ([3]; ratio of IC50 values): 2.3 fold
SI (selectivity index), HepG-2 [3]: 12.65
SI (selectivity index), HCT-116 [4]: 9.12

IC50 [2]: 32.14 ± 0.19 µM
IC50 [3]: 23.12 ± 0.08 µM
IC50 [4]: 38.11 ± 0.3 µM
Compound: CCOC(=O)c1sc2nc3c(c(C)nn3S(=O)(=O)c3ccc(C)cc3)c(-c3ccc(Cl)cc3)c2c1N [Compound 8d, Ethyl 5-amino-4-(4-chlorophenyl)-3-methyl-1-tosyl-1H-pyrazolo[3,4-b]thieno[3,2-e]pyridine-6-carboxylate]

IC50 [2]: 60.23 ± 0.17 µM
IC50 [3]: 52.1 ± 0.71 µM
IC50 [4]: 67.84 ± 0.02 µM
Compound: CC(=O)c1sc2nc3c(c(C)nn3S(=O)(=O)c3ccc(C)cc3)c(-c3ccccc3)c2c1N [Compound 8b, 1-(5-Amino-3-methyl-4-phenyl-1-tosyl-1H-pyrazolo[3,4-b]thieno[3,2-e]pyridin-6-yl)ethan-1-one]

IC50 [2]: 13.7 ± 0.7 µM
IC50 [3]: 10.2 ± 0.15 µM
IC50 [4]: 17.2 ± 0.37 µM
Compound: Cc1ccc(S(=O)(=O)n2nc(C)c3sc(=S)n(C)c32)cc1 [Compound 10a, 3,6-Dimethyl-1-tosyl-1,6-dihydro-5H-pyrazolo[3,4-d]thiazole-5-thione]

IC50 [2]: 19.3 ± 0.45 µM
IC50 [3]: 15.4 ± 0.3 µM
IC50 [4]: 18.86 ± 0.12 µM
Compound: Cc1ccc(S(=O)(=O)n2nc(C)c3c(-c4ccc(Cl)cc4)c4c(N)c(C(=O)O)sc4nc32)cc1 [Compound 8f, 5-Amino-4-(4-chlorophenyl)-3-methyl-1-tosyl-1H-pyrazolo[3,4-b]thieno[3,2-e]pyridine-6-carboxylic acid]

IC50 [2]: 14.2 ± 0.33 µM
IC50 [3]: 12.31 ± 0.1 µM
IC50 [4]: 18.2 ± 0.62 µM
Compound: CC(=O)c1sc2nc3c(c(C)nn3S(=O)(=O)c3ccc(C)cc3)c(-c3ccc(Cl)cc3)c2c1N [Compound 8e, 1-(5-Amino-4-(4-chlorophenyl)-3-methyl-1-tosyl-1H-pyrazolo[3,4-b]thieno[3,2-e]pyridin-6-yl)ethan-1-one]

IC50 [2]: 43.02 ± 0.24 µM
IC50 [3]: 30.58 ± 0.01 µM
IC50 [4]: 47.38 ± 0.11 µM
Compound: Cc1ccc(S(=O)(=O)n2nc(C)c3c(-c4ccccc4)c4c(N)c(C(N)=O)sc4nc32)cc1 [Compound 8a, 5-Amino-3-methyl-4-phenyl-1-tosyl-1H-pyrazolo[3,4-b]thieno[3,2-e]pyridine-6-carboxamide]
